The values that follow come from patent publication US20050208582A1, “Pyrazole compounds and pharmaceutical compositions comprising the compound” (priority 2002, published 2005).

Like-named read-outs stand apart in the source and are kept apart here.

The target in one test is T1, Human JNK 3 (Homo sapiens, UniProt P53779).
T1 construct: made in house; host or cells: Escherichia coli
Briefly: Measurement of JNK 3 inhibition (GST-JNK3, GST-c-Jun substrate, [γ-33P]ATP, SPA beads). The test is classed as biochemical. The procedure:
Measurement of JNK 3 Inhibition
Human JNK 3 was expressed as a fusion protein (GST-JNK 3) with glutathione S-transferase (GST) in Escherichia coli and was purified using glutathione Sepharose 4B beads. The amino acid sequence 1-169 of c-Jun was prepared as a fusion protein (GST-c-Jun) with GST in Escherichia coli, was purified using glutathione Sepharose 4B beads and was used as a substrate. A test compound was solved in 100% dimethyl sulfoxide into 10 mM and was then further diluted with 10% aqueous dimethyl sulfoxide solution to yield a dilution series. In 96-well OPTI plate (available from ParkinElmer Life Sciences), 20 μl of diluted compound, 30 μl of substrate solution (1.2 μg GST-c-Jun, 0.2 μCi [γ-^33P]ATP, 25 mM HEPES pH=7.5, 10 mM MgAcetate, 3.33 μM ATP) and 50 μl of enzyme solution (0.04 μg GST-JNK3, 25 mM HEPES pH=7.5, 10 mM Mg Acetate) were mixed per 1-well, made up to 100 μl, and allowed to react for 30 minutes. After terminating the reaction by adding 100 μl of a reaction terminator (80 mM ATP, 50 mg/ml glutathione SPA beads (available from Amersham Pharmacia Biotech)), the reaction mixture was shaken for 30 minutes. The mixture was centrifuged at room temperature at 1000×g for 5 minutes, and the emission intensity thereof was determined on a TopCount™ illuminator (available from available from PerkinElmer Life Sciences). The activity is expressed by the 50% inhibitory concentration on the enzymatic activity of JNK, i.e., IC50 (nM).

A further test deals with T2, ERK2 (Homo sapiens, UniProt P28482).
T2 construct: purchased Upstate Biotech
Kind of test: Measurement of ERK2 inhibition (ELISA, myelin basic protein substrate). Particulars: concentration at which ERK2 enzyme activity was inhibited to 50%; room temperature, 30 minutes; read-out: ERK2 inhibitory activity. The test is classed as biochemical. The procedure: Measurement of ERK2 Inhibition
A plate for ELISA was coated for 1 hour with 1 μg/well myelin basic protein (available from Upstate Biotech) serving as a reaction substrate. Following washing operation with PBS-Tween, blocking with 1% BSA-PBS was conducted for 3 hours. After washing with PBS-Tween, 25 μl of a reaction solution (20 mM MOPS, 25 mM β-glycerphosphoric acid, 5 mM EGTA, 1 mM orthovanadic acid, 1 mM dithiothreitol), 5 μl of a dilution sample of compound from dilution series which was prepared using 1% DMSO-1% BSA solution, 10 μl of 0.5 μg/ml ERK2 (available from Upstate Bioech), 10 μl of 500 μM ATP were added to made up to 50 μl, and allowed to react at room temperature for 30 minutes. 100 μl of 200 mM EDTA (pH 8.0) was added to stop the reaction, which was then washed with PBS-Tween. This was then added with mouse anti-phospho-myelin basic protein antibody (available from Usptate Biotech), allowed to react for 1 hour, and washed with PBS-Tween, thereafter added with anti-mouse IgG antibody combined with horseradish peroxidase (available from ICN), allowed to react for 1 hour, and washed with PBS-Tween. Subsequently 100 μl of a TMB peroxidase substrate solution (available from KPL) was added, coloring reaction was allowed for 10 minutes, and then measurement at OD 450 nm was conducted. […]

Where [1] appears, read: 50% inhibitory concentration on the enzymatic activity of JNK, 3.33 μM ATP in substrate solution, 30 minutes.
Where [2] appears, read: selectivity table, compared with ERK2, read-out: JNK3 inhibitory activity.

T1 sequence (P53779 whole entry): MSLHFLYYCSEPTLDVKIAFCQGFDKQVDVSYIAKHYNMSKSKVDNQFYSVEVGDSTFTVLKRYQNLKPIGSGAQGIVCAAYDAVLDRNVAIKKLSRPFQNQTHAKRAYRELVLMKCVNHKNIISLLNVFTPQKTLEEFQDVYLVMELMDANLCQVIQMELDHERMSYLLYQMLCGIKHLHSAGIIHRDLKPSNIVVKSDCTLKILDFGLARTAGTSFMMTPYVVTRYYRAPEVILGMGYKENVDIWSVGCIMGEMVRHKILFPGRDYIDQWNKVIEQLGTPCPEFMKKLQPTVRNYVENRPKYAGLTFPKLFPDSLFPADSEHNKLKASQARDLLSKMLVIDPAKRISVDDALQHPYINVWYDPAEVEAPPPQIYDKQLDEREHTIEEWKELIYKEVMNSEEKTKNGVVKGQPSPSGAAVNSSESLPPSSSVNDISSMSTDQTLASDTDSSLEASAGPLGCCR
T2 sequence (P28482 whole entry, species assumed): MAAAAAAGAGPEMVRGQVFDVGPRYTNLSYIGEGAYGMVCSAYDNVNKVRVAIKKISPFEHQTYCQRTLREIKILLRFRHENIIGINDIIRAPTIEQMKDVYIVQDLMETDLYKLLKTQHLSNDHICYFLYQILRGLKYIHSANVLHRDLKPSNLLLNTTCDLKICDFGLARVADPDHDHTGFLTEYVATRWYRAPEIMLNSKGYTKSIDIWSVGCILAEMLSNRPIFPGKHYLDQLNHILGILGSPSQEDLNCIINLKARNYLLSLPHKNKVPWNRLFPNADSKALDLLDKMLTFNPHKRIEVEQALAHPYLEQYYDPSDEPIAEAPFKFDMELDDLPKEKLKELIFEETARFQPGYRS

Regarding `COc1c(-c2nc(C)n[nH]2)ccc2[nH]nc(/C=C/c3cccc(F)c3)c12` [Example 392, 3-[(E)-2-(3-Fluorophenyl)-vinyl]-4-methoxy-5-(5-methyl-2H-[1,2,4]triazol-3-yl)-1H-indazole], at Human JNK 3 (setting [1]), the IC50 was 403 nM.

With `O=C(Nc1ccc2[nH]nc(/C=C/c3ccc(F)cc3)c2n1)c1ccco1` [Example 495, Furan-2-carboxylic Acid {3-[(E)-2-(4-fluorophenyl)-vinyl]-1H-pyrazolo[4,3-b]pyridin-5-yl}-amide], the IC50 against Human JNK 3 (setting [1]) came to 118 nM.

Turning to `O=C(NC(CO)c1ccccc1)c1cc2c(-c3ccc4ccccc4c3)n[nH]c2s1` (centres unmarked) [Example 522, 3-(Naphthalen-2-yl)-1H-thieno[2,3-c]pyrazol-5-carboxylic Acid (2-hydroxy-1-phenylethyl)amide], on Human JNK 3 (setting [1]), the IC50 came to 146 nM.

Regarding `O=C(NCc1ccco1)c1ccc2[nH]nc(/C=C/c3cccs3)c2c1F` [Example 213, 4-Fluoro-3-[(E)-2-(thiophen-2-yl)-vinyl]-1H-indazole-5-carboxylic Acid (furan-2-ylmethyl)-amide], the IC50 against Human JNK 3 (setting [1]) amounted to 117 nM.

With `O=C(NCc1ccco1)c1ccc2[nH]nc(/C=C/c3cccc(F)c3)c2c1` [Reference example 1, 3-[(E)-2-(3-fluorophenyl)-vinyl]-1H-indazole-5-carboxylic acid (furan-2-ylmethyl)-amide, reference compound], the IC50 at Human JNK 3 (setting [2]) is 92 nM; on ERK2 it was 710 nM.

In the case of `CCCNC(=O)Nc1cc2c(/C=C/c3ccc(F)cc3)n[nH]c2cc1F` [Example 1056, 1-{6-Fluoro-3-[(E)-2-(4-fluorophenyl)-vinyl]-1H-indazol-5-yl}-3-propyl-urea], the IC50 against Human JNK 3 (setting [1]) was found to be 132 nM.

At Human JNK 3 (setting [1]), `O=C(NCc1ccco1)c1cnc2[nH]nc(-c3ccc4ccccc4c3)c2c1` [Example 472, 3-(Naphthalen-2-yl)-1H-pyrazolo[3,4-b]pyridine-5-carboxylic Acid (furan-2-ylmethyl)-amide] gave an IC50 of 505 nM.

On to `C[C@H](NC(=O)c1ccc2[nH]nc(/C=C/c3ccc(F)cc3)c2c1OCCCO)C(N)=O` [Example 786, 3-[(E)-2-(4-Fluorophenyl)-vinyl]-4-(3-hydroxypropoxy)-1H-indazole-5-carboxylic Acid [(1S)-1-carbamoyl-ethyl]-amide], for which the IC50 on Human JNK 3 (setting [1]) came to 175 nM.

On Human JNK 3 (setting [1]), `O=C(NCc1cccnc1)c1cc2c(/C=C/c3cccc(F)c3)n[nH]c2cc1F` [Example 106, 6-Fluoro-3-[(E)-2-(3-fluorophenyl)-vinyl]-1H-indazole-5-carboxylic Acid (pyridine-3-ylmethyl)-amide] came in with an IC50 of 195 nM.

Take `O=C(NC1CC1)c1ccc2[nH]nc(-c3cccc(F)c3)c2n1` [Example 56, 3-(3-Fluorophenyl)-1H-pyrazolo[4,3-b]pyridine-5-carboxylic Acid Cyclopropylamide]: on Human JNK 3 (setting [1]), the IC50 worked out at 234 nM.

As for `COc1c(C(=O)NCc2ncco2)ccc2[nH]nc(/C=C/c3ccc(F)cc3F)c12` [Example 992, 3-[(E)-2-(2,4-Difluorophenyl)-vinyl]-4-methoxy-1H-indazole-5-carboxylic Acid (oxazol-2-ylmethyl)amide], on Human JNK 3 (setting [1]), the IC50 amounted to 107 nM.

As for `O=C(NC1CC1)c1ccc2[nH]nc(/C=C/c3ccc(F)cc3)c2c1OCCO` [Example 353, 3-[(E)-2-(4-Fluorophenyl)-vinyl]-4-(2-hydroxyethoxy)-1H-indazole-5-carboxylic Acid Cyclopropylamide], the IC50 against Human JNK 3 (setting [1]) amounted to 148 nM.

Consider `COc1cc(/C=C/c2n[nH]c3cc(F)c(NC(=O)CC4CC4)cc23)ccc1F` [Example 1003, 2-Cyclopropyl-N-{6-fluoro-3-[(E)-2-(4-fluoro-3-methoxyphenyl)-vinyl]-1H-indazol-5-yl}acetamide], for which the IC50 on Human JNK 3 (setting [1]) turned out to be 122 nM.

For `O=C(NCc1ccco1)c1cc2c(/C=C/c3cccc(F)c3)n[nH]c2cc1F` [Example 103, 6-Fluoro-3-[(E)-2-(3-fluorophenyl)-vinyl]-1H-indazole-5-carboxylic Acid (furan-2-ylmethyl)-amide], the IC50 was determined as 55 nM on Human JNK 3 (setting [2]) and 22100 nM on ERK2.

For the molecule `Fc1ccc(/C=C/c2n[nH]c3c(F)cc(-c4ncc[nH]4)cc23)cc1` [Example 603, 7-Fluoro-3-[(E)-2-(4-fluorophenyl)-vinyl]-5-(1H-imidazol-2-yl)-1H-indazole], on Human JNK 3 (setting [1]), the IC50 was determined as 117 nM.

In turn, `NC(=O)CCOc1c(C(=O)N[C@H](CO)c2ccccc2)ccc2[nH]nc(/C=C/c3ccc(F)cc3)c12` [Example 790, 4-(2-Carbamoylethoxy)-3-[(E)-2-(4-fluorophenyl)-vinyl]-1H-indazole-5-carboxylic Acid [(1S)-2-hydroxy-1-phenyl-ethyl]-amide] returned an IC50 at Human JNK 3 (setting [1]) of 70 nM.

For the molecule `O=C(NCc1ccco1)c1cc2c(/C=C/c3cccc(F)c3)n[nH]c2cn1` [Example 466], the IC50 against Human JNK 3 (setting [1]) was determined as 578 nM.

`CNCc1nnc(-c2cc3c(/C=C/c4ccc(F)cc4)n[nH]c3cc2F)[nH]1` [Example 571, (5-{6-Fluoro-3-[(E)-2-(4-fluorophenyl)-vinyl]-1H-indazol-5-yl}-4H-[1,2,4]triazol-3-ylmethyl)-methyl-amine] gave an IC50 against Human JNK 3 (setting [1]) of 63 nM.

In the case of `CC(C)[C@@H](CO)NC(=O)c1cc(F)c2[nH]nc(/C=C/c3cccnc3)c2c1` [Example 128, 7-Fluoro-3-[(E)-2-(pyridin-3-yl)-vinyl]-1H-indazole-5-carboxylic acid [(1S)-1-hydroxymethyl-2-methylpropyl]-amide], the IC50 at Human JNK 3 (setting [1]) was 117 nM.

`O=C(Nc1cc(F)c2[nH]nc(/C=C/c3cccnc3)c2c1)c1ccco1` [Example 136, Furan-2-carboxylic Acid [7-fluoro-3-(2-pyridin-3-yl-vinyl)-1H-indazol-5-yl]-amide] yielded an IC50 against Human JNK 3 (setting [1]) of 167 nM.

Take `NCc1nnc(-c2cc(F)c3[nH]nc(/C=C/c4ccc(F)cc4)c3c2)[nH]1` [Example 573, C-(5-{7-Fluoro-3-[(E)-2-(4-fluorophenyl)-vinyl]-1H-indazol-5-yl}-4H-[1,2,4]triazol-3-yl)-methylamine]: at Human JNK 3 (setting [1]), the IC50 worked out at 66 nM.
